Drawing on patent US9505781B2, “Compositions comprising thienopyrimidine and thienopyridine compounds and methods of use thereof” (The Regents of the University of Michigan, priority 2013, dated 2016), this text covers IC50 for 46 compounds.

This assay deals with T1, menin-MLL interaction (Homo sapiens, UniProt O00255).
T1 sequence (O00255 1-610): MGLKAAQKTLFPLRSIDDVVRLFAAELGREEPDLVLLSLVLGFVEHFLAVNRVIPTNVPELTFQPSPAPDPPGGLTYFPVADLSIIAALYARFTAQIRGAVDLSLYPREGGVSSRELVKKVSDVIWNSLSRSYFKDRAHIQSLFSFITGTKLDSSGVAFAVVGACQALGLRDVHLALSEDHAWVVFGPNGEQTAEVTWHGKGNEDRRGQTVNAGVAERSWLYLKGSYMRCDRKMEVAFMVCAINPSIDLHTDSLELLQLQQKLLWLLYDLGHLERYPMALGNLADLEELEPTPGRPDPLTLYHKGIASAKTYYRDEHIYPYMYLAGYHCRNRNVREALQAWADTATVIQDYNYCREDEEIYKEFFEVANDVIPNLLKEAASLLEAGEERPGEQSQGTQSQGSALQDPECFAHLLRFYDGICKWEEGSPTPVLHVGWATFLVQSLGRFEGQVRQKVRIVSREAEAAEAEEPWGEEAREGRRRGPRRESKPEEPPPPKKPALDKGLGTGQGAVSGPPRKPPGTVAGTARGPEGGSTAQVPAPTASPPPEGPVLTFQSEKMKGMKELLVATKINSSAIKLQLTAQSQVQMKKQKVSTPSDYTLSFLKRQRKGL
Kind of assay: biochemical.

Description: Compounds that inhibit the interaction decrease the fluorescence anisotropy which is being used as a read-out for compound screening and for IC50 determination.

As a reminder, the IC50 is the concentration that gives 50% inhibition. Low readings indicate greater potency, high ones weaker potency. For `COc1cc2[nH]c(C#N)cc2c(C)c1CN1CCC(Nc2ncnc3sc(CC(F)(F)F)cc23)CC1` [Compound 383], the half-maximal inhibitory concentration (IC50) was below 100 nM.

The compound `FC(F)(F)Cc1cc2c(N3CCN(c4nnc(C(F)(F)F)o4)CC3)ncnc2s1` [Compound 20] showed a 50% inhibitory concentration (IC50) of 500 to 2000 nM.

`NS(=O)(=O)Cc1ccc(CC(=O)N2CCN(C3=NC=NC4SC(CC(F)(F)F)=CC34)CC2)c(Cl)c1` (stereo not shown) [Compound 286] returned an IC50 below 100 nM.

With `N#Cc1cc2cc(CN3CCC(Nc4ncnc5sc(CC(F)(F)F)cc45)CC3)ccc2n1Cc1nn[nH]n1` [Compound 240], the IC50 lay within 100 to 500 nM.

Compound `N#Cc1cc2cc(CN3CCC(Nc4ncnc5sc(CC(F)(F)F)cc45)CC3)ccc2n1Cc1c[nH]nn1` [Compound 195] registered a 50% inhibitory concentration (IC50) below 100 nM.

In turn, `NCCS(=O)(=O)Nc1ccc(CC(=O)N2CCN(c3ncnc4sc(CC(F)(F)F)cc34)CC2)cc1` [Compound 50] had an IC50 below 100 nM.

In the case of `N#C[C@H]1C[C@@H]1c1ccc(CN2CCC(Nc3ncnc4sc(CC(F)(F)F)cc34)CC2)cc1` [Compound 106], the IC50 was below 100 nM.

Compound `NCc1nnc(N2CCN(c3ncnc4sc(CC(F)(F)F)cc34)CC2)s1` [Compound 4] returned an IC50 of 100 to 500 nM.

For `Cc1c(CN2CCC(Nc3ncnc4sc(CC(F)(F)F)cc34)CC2)ccc2c1cc(C#N)n2CC(O)(CO)CCCC1CC1` (stereo not shown) [Compound 425], the half-maximal inhibitory concentration (IC50) is below 100 nM.

The compound `FC(c1cc2c(N3CCN(c4nnc(C(F)(F)F)s4)CC3)ncnc2s1)C(F)(F)F` (stereo not shown) [Compound 21] had an IC50 of 500 to 2000 nM.

The compound `N#Cc1cc2cc(CN3CCC(Nc4c(C#N)cnc5sc(CC(F)(F)F)cc45)CC3)ccc2[nH]1` [Compound 279] gave a 50% inhibitory concentration (IC50) below 100 nM.

The compound `Cc1c(CN2CCC(Nc3ncnc4sc(CC(F)(F)F)cc34)CC2)ccc2c1cc(C#N)n2Cc1cnco1` [Compound 361] gave an IC50 below 100 nM.

With `CCOc1cc2c(cc1CN1CCC(Nc3ncnc4sc(CC(F)(F)F)cc34)CC1)cc(C#N)n2CC(N)=O` [Compound 216], the IC50 was below 100 nM.

For the compound `FC(F)(F)Cc1cc2c(N(NCc3ccccc3)C3CCN(Cc4ccccc4)CC3)ncnc2s1` [Compound 124], the IC50 lay within 100 to 500 nM.

`CCOc1c(CN2CCC(Nc3ncnc4sc(CC(F)(F)F)cc34)CC2)ccc2c1cc(C#N)n2CC(N)=O` [Compound 409] gave a half-maximal inhibitory concentration (IC50) of 100 to 500 nM.

Take `Cc1c(CN2CCC(Nc3ncnc4sc(CC(F)(F)F)cc34)CC2)ccc2c1cc(C#N)n2CCN1CCN(CC(N)=O)CC1` [Compound 364]: the 50% inhibitory concentration (IC50) is below 100 nM.

As for `Cc1c(CN2CCC(Nc3ncnc4sc(CC(F)(F)F)cc34)CC2)ccc2c1cc(C#N)n2CC1CCC(=O)N1` (stereo not shown) [Compound 427], the IC50 is below 100 nM.

In turn, `N#Cc1cc2cc(CN3CCC(Nc4ncnc5sc(CC(F)(F)F)cc45)CC3)ccc2n1CC(=O)NC1CC1` [Compound 291] showed an IC50 below 100 nM.

In turn, `N#Cc1cc2cc(CN3CCC(Nc4ncnc5sc(CC(F)(F)F)cc45)CC3)ccc2n1Cc1cc[nH]n1` [Compound 199] registered an IC50 below 100 nM.

As for `N#Cc1cc2cc(CN3CCC(Nc4ncnc5sc(CC(F)(F)F)cc45)CC3)ccc2n1Cc1ncon1` [Compound 198], the IC50 is below 100 nM.

Turning to `N#Cc1cc2cc(CN3CCC(Nc4ncnc5sc(CC(F)(F)F)cc45)CC3)ccc2n1CC(O)(CO)CN1CCOCC1` (stereo not shown) [Compound 333], the half-inhibitory concentration (IC50) is below 100 nM.

As to `CC(=O)NCCC(O)(CO)Cn1c(C#N)cc2c(C)c(CN3CCC(Nc4ncnc5sc(CC(F)(F)F)cc45)CC3)ccc21` (stereo not shown) [Compound 371], the IC50 is below 100 nM.

As to `COc1cc2c(cc1CN1CCC(Nc3ncnc4sc(CC(F)(F)F)cc34)CC1)cc(C#N)n2Cc1cn[nH]c1` [Compound 390], the IC50 is below 100 nM.

Compound `CNCCS(=O)(=O)Nc1ccc(CC(=O)N2CCN(c3ncnc4sc(CC(F)(F)F)cc34)CC2)cc1` [Compound 58] returned a half-maximal inhibitory concentration (IC50) below 100 nM.

For the compound `N#Cc1cc2c(CO)c(CN3CCC(Nc4ncnc5sc(CC(F)(F)F)cc45)CC3)ccc2n1Cc1cn[nH]c1` [Compound 335], the IC50 is below 100 nM.

Compound `COc1cc2[nH]c(C#N)cc2cc1CN1CCC(Nc2ncnc3sc(CC(F)(F)F)cc23)CC1` [Compound 181, 6-methoxy-5-((4-((6-(2,2,2-trifluoroethyl)thieno[2,3-d]pyrimidin-4-yl)amino)piperidin-1-yl)methyl)-1H-indole-2-carbonitrile] displayed a half-maximal inhibitory concentration (IC50) below 100 nM.

In the case of `Cc1c(CN2CC[C@@H](Nc3ncnc4sc(CC(F)(F)F)cc34)[C@H](NCCc3ccccc3)C2)ccc2c1cc(C#N)n2CC(N)=O` [Compound 288], the IC50 was below 100 nM.

Take `FC(F)(F)Cc1cc2c(N3CCN(c4nnc(CCCc5ccccc5)s4)CC3)ncnc2s1` [Compound 41]: the IC50 lay within 500 to 2000 nM.

As to `Cc1c(CN2CCC(Nc3ncnc4sc(CC(F)(F)F)cc34)CC2)ccc2c1cc(C#N)n2Cc1cn(C)nn1` [Compound 303], the IC50 is below 100 nM.

As to `N#Cc1cc2nc(CN3CCC(Nc4ncnc5sc(CC(F)(F)F)cc45)CC3)ccc2[nH]1` [Compound 424], the IC50 is below 100 nM.

Compound `CS(=O)(=O)c1cc2cc(CN3CCC(Nc4ncnc5sc(CC(F)(F)F)cc45)CC3)ccc2[nH]1` [Compound 236] came in with an IC50 of 100 to 500 nM.

On to `Cc1noc(C)c1Cn1c(C#N)cc2cc(CN3CCC(Nc4ncnc5sc(CC(F)(F)F)cc45)CC3)ccc21` [Compound 241], for which the IC50 lay within 100 to 500 nM.

Consider `Cc1c(C#N)[nH]c2ccc(CN3CCC(Nc4ncnc5sc(CC(F)(F)F)cc45)CC3)cc12` [Compound 417], for which the half-inhibitory concentration (IC50) lay in the range of 100 to 500 nM.

In turn, `O=C(Cc1cccc(F)c1)N1CCN(c2ncnc3sc(CC(F)(F)F)cc23)CC1` [Compound 73] came in with a concentration for half-maximal inhibition (IC50) of 100 to 500 nM.

For `CO[C@@H](CO)Cn1c(C#N)cc2cc(CN3CCC(Nc4ncnc5sc(CC(F)(F)F)cc45)CC3)ccc21` [Compound 190], the concentration for half-maximal inhibition (IC50) is below 100 nM.

Compound `Cc1c(CN2CCC(Nc3ncnc4sc(CC(F)(F)F)cc34)CC2)ccc2c1cc(C#N)n2Cc1ncc[nH]1` [Compound 332] registered a half-inhibitory concentration (IC50) below 100 nM.

As to `COc1cc2c(cc(C#N)n2Cc2cn[nH]c2)c(C)c1CN1CCC(Nc2ncnc3sc(CC(F)(F)F)cc23)CC1` [Compound 389], the IC50 is below 100 nM.

For the compound `N#Cc1cc2c(C(F)F)c(CN3CCC(Nc4ncnc5sc(CC(F)(F)F)cc45)CC3)ccc2[nH]1` [Compound 305], the IC50 was below 100 nM.

`Cc1c(CN2CCC(Nc3ncnc4sc(CC(F)(F)F)cc34)CC2)ccc2c1cc(C#N)n2CCn1cncn1` [Compound 304] gave an IC50 below 100 nM.

Compound `CC(c1cc2c(N3CCN(C4=NCC(C)(C)S4)CC3)ncnc2s1)C(F)(F)F` (stereo not shown) [Compound 38] gave an IC50 of 500 to 2000 nM.

For `OCCN(c1ncnc2sc(CC(F)(F)F)cc12)C1CCN(Cc2ccccc2)CC1` [Compound 129], the half-inhibitory concentration (IC50) was 100 to 500 nM.

Take `Cc1ccccc1CN1CCC(CNc2ncnc3sc(CC(F)(F)F)cc23)CC1` [Compound 258]: the IC50 was 100 to 500 nM.

For the compound `N#Cc1cc2cc(CN3CCC(Nc4ncnc5sc(CC(F)(F)F)cc45)CC3)ccc2n1Cc1cc(OCCCC2CCCC2)n[nH]1` [Compound 416], the IC50 is 100 to 500 nM.

Turning to `N#Cc1cc2cc(CN3CCC(Nc4ncnc5sc(CC(F)(F)F)cc45)CC3)ccc2n1Cc1cc(OCC2CC2)n[nH]1` [Compound 312], the IC50 was below 100 nM.

`FC(F)(F)Cc1cc2c(N[C@@H]3[C@@H]4CC[C@H]3CN(Cc3ccccc3)C4)ncnc2s1` [Compound 135] had a concentration for half-maximal inhibition (IC50) of 100 to 500 nM.

`Cc1c(CN2CCC(Nc3ncnc4sc(CC(F)(F)F)cc34)CC2)ccc2c1cc(C#N)n2CC1CN(C)C(=O)CO1` (stereo not shown) [Compound 426] showed an IC50 below 100 nM.
